Target: T1, LXRβ (Homo sapiens, UniProt P55055)
T1 construct: pFA-CMV-hLXRβ-LBD; expressed in transfected cells; host or cells: HEK293T
T1 sequence (P55055 222-460 limits assumed): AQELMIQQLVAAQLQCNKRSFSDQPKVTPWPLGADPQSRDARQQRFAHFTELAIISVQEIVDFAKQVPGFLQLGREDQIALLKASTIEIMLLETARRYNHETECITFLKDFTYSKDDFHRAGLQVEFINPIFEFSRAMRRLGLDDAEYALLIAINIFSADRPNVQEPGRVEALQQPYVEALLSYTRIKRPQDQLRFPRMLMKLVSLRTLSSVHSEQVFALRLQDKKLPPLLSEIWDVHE
Experiment: Gal4-hybrid reporter gene assay LXRβ in HEK293T cells
Format: cell-based
Details: 10 μM; printed as both LXR subtypes
From the text: Hybrid reporter gene assays for PPARα/γ/δ, LXRα/β, RXRα/β/γ, RARα/β/γ, VDR and PXR Plasmids: The Gal4-fusion receptor plasmids pFA-CMV-hPPARα-LBD^52, pFA-CMV-hPPARγ-LBD^52, pFA-CMV-hPPARδ-LBD^52, pFA-CMV-hLXRα-LBD^32 and pFA-CMV-hLXRβ-LBD^32 have been reported previously. […] Frame and sequence of all fusion receptors were verified by sequencing. pFR-Luc (Stratagene) was used as reporter plasmid and pRL-SV40 (Promega) for normalization of transfection efficiency and cell growth.
Assay procedure: HEK293T cells were grown in DMEM high glucose, supplemented with 10% FCS, sodium pyruvate (1 mM), penicillin (100 U/mL) and streptomycin (100 μg/mL) at 37° C. and 5% CO2. The day before transfection, HEK293T cells were seeded in 96-well plates (2.5·10^4 cells/well). Before transfection, medium was changed to Opti-MEM without supplements. Transient transfection was carried out using Lipofectamine LTX reagent (Invitrogen) according to the manufacturer's protocol with pFR-Luc (Stratagene), pRL-SV40 (Promega) and pFA-CMV-hRXRα-LBD. 5 h after transfection, medium was changed to Opti-MEM supplemented with penicillin (100 U/mL), streptomycin (100 μg/mL), now additionally containing 0.1% DMSO and the respective test compound or 0.1% DMSO alone as untreated control. […] Luminescence was measured with an Infinite M200 luminometer (Tecan Deutschland GmbH). […]

CC(C)(C)c1ccc(C(=O)NCc2ccc(NS(C)(=O)=O)cc2Cl)cc1 [compound 57, 4-(tert-Butyl)-N-(2-chloro-4-(methylsulfonamido)benzyl)benzamide]
activity on LXRβ: inactive

— patent publication US20200172473A1, “DUAL MODULATORS OF FARNESOID X RECEPTOR AND SOLUBLE EPOXIDE HYDROLASE” (JOHANN WOLFGANG GOETHE-UNIVERSITÄT FRANKFURT AM MAIN, priority 2017, published 2020)
